Measured values taken from BindingDB's records for doi:10.1016/j.ejmech.2012.11.020 (North Maharashtra University, 2013).

Molecular target: T1, Pancreatic alpha-amylase (Sus scrofa, UniProt P00690)
T1 sequence (P00690 whole entry): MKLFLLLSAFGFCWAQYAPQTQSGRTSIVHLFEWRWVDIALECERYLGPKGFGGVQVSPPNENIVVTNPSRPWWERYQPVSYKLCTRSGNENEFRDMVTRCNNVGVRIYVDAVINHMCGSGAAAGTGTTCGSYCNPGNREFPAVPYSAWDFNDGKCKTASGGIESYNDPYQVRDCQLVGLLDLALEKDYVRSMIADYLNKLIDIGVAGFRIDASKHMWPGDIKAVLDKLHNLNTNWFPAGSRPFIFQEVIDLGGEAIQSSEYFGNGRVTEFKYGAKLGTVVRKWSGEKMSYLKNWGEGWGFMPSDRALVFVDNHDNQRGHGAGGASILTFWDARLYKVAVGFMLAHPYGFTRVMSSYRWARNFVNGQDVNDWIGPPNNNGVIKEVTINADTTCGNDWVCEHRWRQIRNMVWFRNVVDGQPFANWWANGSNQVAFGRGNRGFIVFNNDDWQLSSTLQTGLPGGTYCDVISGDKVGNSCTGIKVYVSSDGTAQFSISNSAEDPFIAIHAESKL
Test: Inhibition of pig pancreatic alpha-amylase by Bernfeld method

| IC50 [µM] | Structure (SMILES) |
| --- | --- |
| 17.9 | CCOc1ccc2nc(N=C(CC(=O)c3ccc(Cl)cc3)SC)sc2c1 |
| 17.8 | CSC(CC(=O)c1ccc(Br)cc1)=Nc1nc2ccccc2s1 |
